ChEMBL document CHEMBL1201862, “PubChem BioAssay data set” (2004)
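Dose response: 5 concentrations. Exposure: 48 h. Format: 96-well plates. Endpoint: linear interpolation; highest concentration if not reached. At the GI50, growth is halved.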 Active and inactive are the calls of the source. No stated cut-off is given here; in the data, active = GI50 up to about 1.1 µM and inactive = higher.

Experiments:
Experiment in all cases: NCI anticancer screen, dose series, 48 h
786-0 = test system: 786-0
CAKI-1 = test system: CAKI-1
CCRF-CEM = test system: CCRF-CEM
COLO 205 = test system: COLO 205
EKVX = test system: EKVX
HOP-62 = test system: HOP-62
K562 = test system: K562
M14 = test system: M14
Malme-3M = test system: Malme-3M
NCI-H226 = test system: NCI-H226
NCI-H460 = test system: NCI-H460
OVCAR-5 = test system: OVCAR-5
RXF 393 = test system: RXF 393
SF-268 = test system: SF-268
SF-539 = test system: SF-539
SK-MEL-5 = test system: SK-MEL-5
SK-OV-3 = test system: SK-OV-3
U-251 = test system: U-251
UO-31 = test system: UO-31

Measured: GI50

O=C1NC2OC(CO)C(O)C(O1)C2O (centres undefined)
inactive: 786-0 > 100 µM | CAKI-1 > 100 µM | CCRF-CEM > 100 µM | COLO 205 > 100 µM | EKVX > 100 µM | HOP-62 > 100 µM | K562 > 100 µM | M14 > 100 µM | Malme-3M > 100 µM | NCI-H226 > 100 µM | NCI-H460 > 100 µM | OVCAR-5 > 100 µM | RXF 393 > 100 µM | SF-268 > 100 µM | SF-539 > 100 µM | SK-MEL-5 > 100 µM | SK-OV-3 > 100 µM | U-251 > 100 µM | UO-31 > 100 µM

CCOC(=O)c1c(/C=N\Nc2ccccc2)nc2ccccc2c1-c1ccccc1
inactive: 786-0 40.6 µM | CAKI-1 68.9 µM | CCRF-CEM 19.2 µM | COLO 205 24 µM | EKVX 61.9 µM | HOP-62 39 µM | K562 29.5 µM | M14 36.7 µM | Malme-3M 35.1 µM | NCI-H226 45.7 µM | NCI-H460 37.8 µM | OVCAR-5 > 100 µM | RXF 393 65.8 µM | SF-268 56.5 µM | SF-539 68.5 µM | SK-MEL-5 31.2 µM | SK-OV-3 > 100 µM | U-251 38.2 µM | UO-31 34.4 µM

O=c1c2cccnc2ncn1CCCN1CCOCC1
inactive: 786-0 > 100 µM | CAKI-1 > 100 µM | CCRF-CEM > 100 µM | COLO 205 > 100 µM | EKVX > 100 µM | HOP-62 > 100 µM | K562 > 100 µM | M14 > 100 µM | Malme-3M > 100 µM | NCI-H226 > 100 µM | NCI-H460 > 100 µM | OVCAR-5 > 100 µM | RXF 393 > 100 µM | SF-268 > 100 µM | SF-539 > 100 µM | SK-MEL-5 > 100 µM | SK-OV-3 > 100 µM | U-251 > 100 µM | UO-31 > 100 µM

O=CN1CCN(C=S)CC1
inactive: 786-0 > 100 µM | CAKI-1 > 100 µM | CCRF-CEM > 100 µM | COLO 205 > 100 µM | EKVX > 100 µM | HOP-62 > 100 µM | K562 > 100 µM | M14 > 100 µM | Malme-3M > 100 µM | NCI-H226 > 100 µM | NCI-H460 > 100 µM | OVCAR-5 > 100 µM | RXF 393 > 100 µM | SF-268 > 100 µM | SF-539 > 100 µM | SK-MEL-5 > 100 µM | SK-OV-3 > 100 µM | U-251 > 100 µM | UO-31 > 100 µM

NC(N)NCCCc1cn2c(n1)C1CCCN1C(=O)C2Cc1ccccc1 (centres undefined)
inactive: 786-0 > 100 µM | CAKI-1 > 100 µM | CCRF-CEM > 100 µM | COLO 205 > 100 µM | EKVX > 100 µM | HOP-62 > 100 µM | K562 > 100 µM | M14 > 100 µM | Malme-3M > 100 µM | NCI-H226 > 100 µM | NCI-H460 > 100 µM | OVCAR-5 > 100 µM | RXF 393 > 100 µM | SF-268 > 100 µM | SF-539 > 100 µM | SK-MEL-5 > 100 µM | SK-OV-3 > 100 µM | U-251 > 100 µM | UO-31 > 100 µM

Cc1cccc(NC(=O)CSc2nnc(Cc3ccccc3)o2)c1
inactive: 786-0 > 100 µM | CAKI-1 > 100 µM | CCRF-CEM > 100 µM | COLO 205 > 100 µM | EKVX > 100 µM | HOP-62 > 100 µM | K562 > 100 µM | M14 > 100 µM | Malme-3M > 100 µM | NCI-H226 > 100 µM | NCI-H460 > 100 µM | OVCAR-5 > 100 µM | RXF 393 > 100 µM | SF-268 > 100 µM | SF-539 > 100 µM | SK-MEL-5 > 100 µM | SK-OV-3 > 100 µM | U-251 > 100 µM | UO-31 > 100 µM
